Results from US7282203B2, “Use of NOTCH pathway interfering agents for treatment of plasma cell disorders” (Health Research, Inc., priority 2003, dated 2007).

Experiments:
[1] = tested on: multiple myeloma; conditions: cited from earlier work
[2] = tested on: OPM2 MM cells; test: MTT assay, percent of living OPM2 MM cells cultured on fibroblast cells; assay type: cell-based; conditions: for IC50: Homo sapiens, OPM-2
Protocol: FIG. 11A-D. IC50 for OPM2 cells (MM) incubated with doxorubicin (DOX) alone or in the presence of an anti-NOTCH or anti-JAG2 antibody. OPM2 (MM) cells were cultured on fibroblasts (MRC5) In FIG. 11 A, IC50 data is shown for cells incubated with different concentrations of DOX. In FIG. 11B, IC50 data is shown for OPM2 cells on fibroblast with […] DOX, an isotype antibody or an anti-NOTCH-EC antibody. In FIG. 11C, data is shown for the effect of the anti-NOTCH antibody alone, without DOX. In FIG. 11D, IC50 values are shown for OMP2 cells incubated alone, in the presence of DOX or in the presence of DOX with an anti-JAG2 antibody (M8).
To illustrate this embodiment, the anti-NOTCH-EC antibody or the anti-JAG2 antibody was used in combination with doxorubicin (DOX). The OPM2 MM cells were cultured for 48 hours on fibroblast cells with different concentrations of DOX. […] However, when increasing concentrations of the anti-JAG2 were added, the percent of living cells was seen to decrease.

[3] = tested on: MRC5 cell line; test: Cytokine secretion on incubation of MRC5 cell line with JAG2 binding peptide; assay type: cell-based; conditions: MRC5, different concentrations of peptide
Protocol: (§1) FIGS. 8A-C. Induction of the secretion of IL-6 (FIG. 8A); VEGF (FIG. 8B) and IGF-1 (FIG. 8C) by incubation of the MRC5 and RPMI8226 cell lines with a JAG2 binding peptide CDENYYSATCNKFCRPRND (SEQ ID NO:1) at the indicated concentrations.
(§2) In order to ascertain the involvement of JAG2 in the induction of the secretion of IL-6, VEGF and IGF-1, we incubated the MRC5 cell line with different concentrations of JAG2 peptide. This peptide corresponds to the binding region of JAG2 that activates NOTCH upon interaction. We also incubated the RPMI8226 cell line with this same peptide.

[4] = tested on: RPMI8226 cell line; test: Cytokine secretion on incubation of RPMI8226 cell line with JAG2 binding peptide; assay type: cell-based; conditions: RPMI8226 MM cell line
Protocol: as §1, §2

Which “patients reaching complete remission (CR)” value ([1]; conventional chemotherapy, mainly Melphalan) does the source give for `N[C@@H](Cc1ccc(N(CCCl)CCCl)cc1)C(=O)O` [Melphalan] here?
The value was 14%.

For `COc1cccc2c1C(=O)c1c(O)c3c(c(O)c1C2=O)C[C@@](O)(C(=O)CO)C[C@@H]3O[C@H]1C[C@H](N)[C@H](O)[C@H](C)O1` [DOX, doxorubicin], which “percent of living cells” value ([2]; DOX alone (FIG. 11D)) is on record?
Its value is “no effect”.

And the IC50 ([2]; DOX alone, 48 hours on fibroblast cells)?
The IC50 was about 1000 nM.

And the IC50 ([2]; DOX in the presence of 40 μg (27 μg/ml) anti-NOTCH EC antibody)?
The IC50 was 100 nM.

And the “reduction of DOX concentration at IC50” value ([2]; with 40 μg anti-NOTCH EC antibody versus DOX alone)?
The value was about 10 times.

Which results are given for `CC(C)C[C@H](NC(=O)[C@H](Cc1ccccc1)NC(=O)c1cnccn1)B(O)O` [PS341]?
CR/PR ([1]; available trials): 47%; patients showing a >75% reduction of paraprotein ([1]; available trials): 30%

Which “secretion of IGF-1” value [3] does the source give for “NH2-CDENYYSATCNKFCRPRND-OH (H-CDENYYSATCNKFCRPRND-OH; cysteine pairing not given here) [JAG2 binding peptide]” here?
The value was “activated”.

And the “secretion of IL-6” value [3]?
The value was “activated”.

And the “secretion of VEGF” value [3]?
Its value is “activated”.

And the “secretion of IGF-1” value [4]?
Its value is “no stimulation”.

What about the “secretion of IL-6” value [4] of the same molecule?
Its value is “no stimulation”.

What about the “secretion of VEGF” value [4] of the same molecule?
The value was “no stimulation”.
